For this test, the target named is T1, Human PD-L1/PD-1 (Homo sapiens, UniProt Q9NZQ7).
T1 construct: TVMV protease cleavage site (C); made in house; host or cells: HEK293T cells
Kind of test: HTRF Human PD-L1/PD-1 binding assay (PD-1-Ig/PD-L1-His). Conditions: PD-L1-His 10 nM, PD-1-Ig 20 nM; class symbol; read-out: HTRF Human PD-L1/PD-1 Binding Assay IC50 Range. In short, it runs like this:
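HTRF competition using HEK293T-expressed human PD-1(25-167)-Ig at 20 nM and PD-L1(18-239)-His at 10 nM, compound incubated first with PD-L1 for 15 min, then with PD-1 for 15 min. Signal read as 665/620 nm ratio 30 min after adding Eu anti-Ig and APC anti-His antibodies.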
For orientation: In TR-FRET formats the signal depends on donor and acceptor labels being close together.

Data on 15 compounds can be found in US10538555B2, “Macrocyclic inhibitors of the PD-1/PD-L1 and CD80(B7-1)/PD-L1 protein/protein interactions” (BRISTOL-MYERS SQUIBB COMPANY, priority 2014, dated 2020).

SMILES strings stand for the structures. Where a SMILES comes first, the peptide text is derived from it. Bridges are numbered along the chain shown (N, C = ends). [ ]: non-standard residue; d: D form. Trp(1-CH2COOH) = N[C@@H](Cc1cn(CC(=O)O)c2ccccc12)C(=O)O; Bta = N[C@@H](Cc1csc2ccccc12)C(=O)O; Hyp = O=C(O)[C@@H]1C[C@@H](O)CN1; NMeNle = CCCC[C@H](NC)C(=O)O; NMeA = CN[C@@H](C)C(=O)O; Orn = NCCC[C@H](N)C(=O)O; Dab = NCC[C@H](N)C(=O)O; Dap = NC[C@H](N)C(=O)O

T1 sequence (Q9NZQ7 with tags, fused parts or gaps): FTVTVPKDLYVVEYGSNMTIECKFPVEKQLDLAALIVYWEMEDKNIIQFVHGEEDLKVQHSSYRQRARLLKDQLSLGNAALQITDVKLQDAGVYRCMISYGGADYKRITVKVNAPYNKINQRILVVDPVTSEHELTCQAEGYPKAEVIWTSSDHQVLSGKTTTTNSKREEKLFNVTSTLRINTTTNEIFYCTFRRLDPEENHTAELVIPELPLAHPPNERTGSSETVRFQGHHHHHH

On to `CCCC[C@H]1C(=O)N(C)[C@@H](CCCC)C(=O)N[C@@H](CN)C(=O)N[C@H](C(=O)NCC(N)=O)CSCC(=O)N[C@@H](Cc2ccc(O)cc2)C(=O)N(C)[C@@H](C)C(=O)N[C@@H](CC(=O)O)C(=O)N2CCC[C@H]2C(=O)N[C@@H](CN)C(=O)N[C@@H](CCC(N)=O)C(=O)N2C[C@H](O)C[C@H]2C(=O)N[C@@H](Cc2c[nH]c3ccccc23)C(=O)N[C@@H](CCN)C(=O)N[C@@H](Cc2cn(CC(=O)O)c3ccccc23)C(=O)N1C` [Example 5192] ({CH2CO}-Y[NMeA]DP[Dap]Q[Hyp]W[Dab][Trp(1-CH2COOH)][NMeNle][NMeNle][Dap]CG-NH2; thioether N-14), for which the IC50 is 1 to 9.9 nM. As to `CCCC[C@H]1C(=O)N(C)[C@@H](CCCC)C(=O)N[C@@H](CCC(=O)O)C(=O)N[C@H](C(=O)NCC(N)=O)CSCC(=O)N[C@@H](Cc2ccc(O)cc2)C(=O)N(C)[C@@H](C)C(=O)N[C@@H](CC(N)=O)C(=O)N2CCC[C@H]2C(=O)N[C@@H](CO)C(=O)N[C@@H](CCC(=O)O)C(=O)N2C[C@H](O)C[C@H]2C(=O)N[C@@H](Cc2c[nH]c3ccccc23)C(=O)N[C@@H](CCC(=O)O)C(=O)N[C@@H](Cc2c[nH]c3ccccc23)C(=O)N1C` [Example 5196] ({CH2CO}-Y[NMeA]NPSE[Hyp]WEW[NMeNle][NMeNle]ECG-NH2; thioether N-14), the IC50 fell in the range of 1 to 9.9 nM. The value for `CCCC[C@H]1C(=O)N(C)[C@@H](CCCC)C(=O)NCC(=O)N[C@H](C(=O)NCC(N)=O)CSCC(=O)N[C@@H](Cc2ccc(O)cc2)C(=O)N(C)[C@@H](C)C(=O)N[C@@H](CC(N)=O)C(=O)N2CCC[C@H]2C(=O)N[C@@H](Cc2c[nH]cn2)C(=O)N[C@@H](CCC(N)=O)C(=O)N2C[C@H](O)C[C@H]2C(=O)N[C@@H](Cc2c[nH]c3ccccc23)C(=O)NCC(=O)N[C@@H](Cc2c[nH]c3ccccc23)C(=O)N1C` [Example 5198] ({CH2CO}-Y[NMeA]NPHQ[Hyp]WGW[NMeNle][NMeNle]GCG-NH2; thioether N-14) was 10 to 99.9 nM; that for `CCCC[C@H]1C(=O)N(C)[C@@H](CCCC)C(=O)N[C@@H](CC(C)C)C(=O)N[C@H](C(=O)O)CSCC(=O)N[C@@H](Cc2ccc(O)cc2)C(=O)N(C)[C@@H](C)C(=O)N[C@@H](CC(N)=O)C(=O)N2CCC[C@H]2C(=O)N[C@@H](CN)C(=O)N[C@@H](CC(C)C)C(=O)N2C[C@H](O)C[C@H]2C(=O)N[C@@H](Cc2c[nH]c3ccccc23)C(=O)N[C@@H](CCCN)C(=O)N[C@@H](Cc2cn(CC(=O)O)c3ccccc23)C(=O)N1C` [Example 5199] ({CH2CO}-Y[NMeA]NP[Dap]L[Hyp]W[Orn][Trp(1-CH2COOH)][NMeNle][NMeNle]LC-OH; thioether N-14) was 1 to 9.9 nM; that for `CCCC[C@H]1C(=O)N(C)[C@@H](CCCC)C(=O)N[C@@H](CCC(=O)O)C(=O)N[C@H](C(=O)NCC(N)=O)CSCC(=O)N[C@@H](Cc2ccc(O)cc2)C(=O)N(C)[C@@H](C)C(=O)N[C@@H](CC(=O)O)C(=O)N2CCC[C@H]2C(=O)N[C@@H](CN)C(=O)N[C@@H](CCC(N)=O)C(=O)N2C[C@H](O)C[C@H]2C(=O)N[C@@H](Cc2c[nH]c3ccccc23)C(=O)N[C@@H](CCN)C(=O)N[C@@H](Cc2c[nH]c3ccccc23)C(=O)N1C` [Example 5200] ({CH2CO}-Y[NMeA]DP[Dap]Q[Hyp]W[Dab]W[NMeNle][NMeNle]ECG-NH2; thioether N-14) was 1 to 9.9 nM. Then `CCCC[C@H]1C(=O)N(C)[C@@H](CCCC)C(=O)N[C@@H](CC(C)C)C(=O)N[C@H](C(=O)NCC(N)=O)CSCC(=O)N[C@@H](Cc2ccc(O)cc2)C(=O)N(C)[C@@H](C)C(=O)N[C@@H](CCN)C(=O)N2CCC[C@H]2C(=O)N[C@@H](Cc2c[nH]cn2)C(=O)N[C@@H](CCCCN)C(=O)N2C[C@H](O)C[C@H]2C(=O)N[C@@H](Cc2c[nH]c3ccccc23)C(=O)N[C@@H](CCCCN)C(=O)N[C@@H](Cc2c[nH]c3ccccc23)C(=O)N1C` [Example 5201] ({CH2CO}-Y[NMeA][Dab]PHK[Hyp]WKW[NMeNle][NMeNle]LCG-NH2; thioether N-14), with 1 to 9.9 nM; and `CCCC[C@H]1C(=O)N(C)[C@@H](CCCC)C(=O)N[C@@H](CC(C)C)C(=O)N[C@H](C(=O)NCC(N)=O)CSCC(=O)N[C@@H](Cc2ccc(O)cc2)C(=O)N(C)[C@@H](C)C(=O)N[C@@H](CC(=O)O)C(=O)N2CCC[C@H]2C(=O)N[C@@H](Cc2c[nH]cn2)C(=O)N[C@@H](CCCCNC(C)=O)C(=O)N2C[C@H](O)C[C@H]2C(=O)N[C@@H](Cc2c[nH]c3ccccc23)C(=O)N[C@@H](CCCCN)C(=O)N[C@@H](Cc2c[nH]c3ccccc23)C(=O)N1C` [Example 5202] ({CH2CO}-Y[NMeA]DPHK(Ac)[Hyp]WKW[NMeNle][NMeNle]LCG-NH2; thioether N-14), with 1 to 9.9 nM.

On to `CCCC[C@H]1C(=O)N(C)[C@@H](CCCC)C(=O)N[C@@H](CCC(=O)O)C(=O)N[C@H](C(=O)NCC(N)=O)CSCC(=O)N[C@@H](Cc2ccc(O)cc2)C(=O)N(C)[C@@H](C)C(=O)N[C@@H](CC(N)=O)C(=O)N2CCC[C@H]2C(=O)N[C@@H](CO)C(=O)N[C@@H](CCC(N)=O)C(=O)N2C[C@H](O)C[C@H]2C(=O)N[C@@H](Cc2c[nH]c3ccccc23)C(=O)N[C@@H](CO)C(=O)N[C@@H](Cc2c[nH]c3ccccc23)C(=O)N1C` [Example 5204] ({CH2CO}-Y[NMeA]NPSQ[Hyp]WSW[NMeNle][NMeNle]ECG-NH2; thioether N-14), for which the IC50 was 1 to 9.9 nM. Then `CCCC[C@H]1C(=O)N(C)[C@@H](CCCC)C(=O)N[C@@H](CCC(=O)O)C(=O)N[C@H](C(=O)NCC(N)=O)CSCC(=O)N[C@@H](Cc2ccc(O)cc2)C(=O)N(C)[C@@H](C)C(=O)N[C@@H](CC(N)=O)C(=O)N2CCC[C@H]2C(=O)N[C@@H](CO)C(=O)N[C@@H](CCC(=O)O)C(=O)N2C[C@H](O)C[C@H]2C(=O)N[C@@H](Cc2c[nH]c3ccccc23)C(=O)N[C@@H](CO)C(=O)N[C@@H](Cc2c[nH]c3ccccc23)C(=O)N1C` [Example 5205] ({CH2CO}-Y[NMeA]NPSE[Hyp]WSW[NMeNle][NMeNle]ECG-NH2; thioether N-14), with 1 to 9.9 nM; and `CCCC[C@H]1C(=O)N(C)[C@@H](CCCC)C(=O)N[C@@H](CCC(=O)O)C(=O)N[C@H](C(=O)NCC(N)=O)CSCC(=O)N[C@@H](Cc2ccc(O)cc2)C(=O)N(C)[C@@H](C)C(=O)N[C@@H](CC(N)=O)C(=O)N2CCC[C@H]2C(=O)N[C@@H](CN)C(=O)N[C@@H](CCC(=O)O)C(=O)N2C[C@H](O)C[C@H]2C(=O)N[C@@H](Cc2c[nH]c3ccccc23)C(=O)N[C@@H](CCN)C(=O)N[C@@H](Cc2c[nH]c3ccccc23)C(=O)N1C` [Example 5207] ({CH2CO}-Y[NMeA]NP[Dap]E[Hyp]W[Dab]W[NMeNle][NMeNle]ECG-NH2; thioether N-14), with 10 to 99.9 nM; and `CCCC[C@H]1C(=O)N(C)[C@@H](CCCC)C(=O)N[C@@H](CCC(=O)O)C(=O)N[C@H](C(=O)NCC(N)=O)CSCC(=O)N[C@@H](Cc2ccc(O)cc2)C(=O)N(C)[C@@H](C)C(=O)N[C@@H](CC(N)=O)C(=O)N2CCC[C@H]2C(=O)N[C@@H](CN)C(=O)N[C@@H](CCC(N)=O)C(=O)N2C[C@H](O)C[C@H]2C(=O)N[C@@H](Cc2c[nH]c3ccccc23)C(=O)N[C@@H](CO)C(=O)N[C@@H](Cc2c[nH]c3ccccc23)C(=O)N1C` [Example 5208] ({CH2CO}-Y[NMeA]NP[Dap]Q[Hyp]WSW[NMeNle][NMeNle]ECG-NH2; thioether N-14), with 1 to 9.9 nM.

As to `CCCC[C@H]1C(=O)N(C)[C@@H](CCCC)C(=O)N[C@@H](CN)C(=O)N[C@H](C(=O)NCC(N)=O)CSCC(=O)N[C@@H](Cc2ccc(O)cc2)C(=O)N(C)[C@@H](C)C(=O)N[C@@H](CC(N)=O)C(=O)N2CCC[C@H]2C(=O)N[C@@H](CN)C(=O)N[C@@H](CCC(N)=O)C(=O)N2C[C@H](O)C[C@H]2C(=O)N[C@@H](Cc2c[nH]c3ccccc23)C(=O)N[C@@H](CCN)C(=O)N[C@@H](Cc2cn(CC(=O)O)c3ccccc23)C(=O)N1C` [Example 5213] ({CH2CO}-Y[NMeA]NP[Dap]Q[Hyp]W[Dab][Trp(1-CH2COOH)][NMeNle][NMeNle][Dap]CG-NH2; thioether N-14), the IC50 was 1 to 9.9 nM. Then `CCCC[C@H]1C(=O)N(C)[C@@H](CCCC)C(=O)N[C@@H](CCC(=O)O)C(=O)N[C@H](C(=O)NCC(N)=O)CSCC(=O)N[C@@H](Cc2ccc(O)cc2)C(=O)N(C)[C@@H](C)C(=O)N[C@@H](CC(=O)O)C(=O)N2CCC[C@H]2C(=O)N[C@@H](CO)C(=O)N[C@@H](CCC(N)=O)C(=O)N2C[C@H](O)C[C@H]2C(=O)N[C@@H](Cc2c[nH]c3ccccc23)C(=O)N[C@@H](CO)C(=O)N[C@@H](Cc2c[nH]c3ccccc23)C(=O)N1C` [Example 5214] ({CH2CO}-Y[NMeA]DPSQ[Hyp]WSW[NMeNle][NMeNle]ECG-NH2; thioether N-14), with 1 to 9.9 nM; and `CCCC[C@H]1C(=O)N(C)[C@@H](CCCC)C(=O)N[C@@H](CCC(=O)O)C(=O)N[C@H](C(=O)NCC(N)=O)CSCC(=O)N[C@@H](Cc2ccc(O)cc2)C(=O)N(C)[C@@H](C)C(=O)N[C@@H](CC(=O)O)C(=O)N2CCC[C@H]2C(=O)N[C@@H](Cc2c[nH]cn2)C(=O)N[C@@H](CCC(N)=O)C(=O)N2C[C@H](O)C[C@H]2C(=O)N[C@@H](Cc2c[nH]c3ccccc23)C(=O)N[C@@H](CO)C(=O)N[C@@H](Cc2csc3ccccc23)C(=O)N1C` [Example 5215] ({CH2CO}-Y[NMeA]DPHQ[Hyp]WS[Bta][NMeNle][NMeNle]ECG-NH2; thioether N-14), with 1 to 9.9 nM; and `CCCC[C@H]1C(=O)N(C)[C@@H](CCCC)C(=O)N[C@@H](CCC(=O)O)C(=O)N[C@H](C(=O)NCC(N)=O)CSCC(=O)N[C@@H](Cc2ccc(O)cc2)C(=O)N(C)[C@@H](C)C(=O)N[C@@H](CC(N)=O)C(=O)N2CCC[C@H]2C(=O)N[C@@H](CO)C(=O)N[C@@H](CC(C)C)C(=O)N2C[C@H](O)C[C@H]2C(=O)N[C@@H](Cc2c[nH]c3ccccc23)C(=O)N[C@@H](CCC(=O)O)C(=O)N[C@@H](Cc2c[nH]c3ccccc23)C(=O)N1C` [Example 5216] ({CH2CO}-Y[NMeA]NPSL[Hyp]WEW[NMeNle][NMeNle]ECG-NH2; thioether N-14), with 1 to 9.9 nM.
